The text below walks through data of ChEMBL document CHEMBL4334496, “Identification of a Unique Resorcylic Acid Lactone Derivative That Targets Both Lymphangiogenesis and Angiogenesis” (J Med Chem, 2019).

Structures are written as SMILES. The source made the active and inactive calls. The calls are words filed in the database; no cut-off is given here. Bounds are passed on as bounds.

One series is described as follows: in vitro. The settings on record: mouse, BA/F3 cells.
The target in series [1] is T1, Vascular endothelial growth factor receptor 1 (Homo sapiens, UniProt P17948). The experiment in a line: Inhibition of human VEGFR1 using poly[Glu:Tyr] (4:1) substrate and [gamma-33P]-ATP by radiometric biochemical kinase assay.
The target of series [2] is T1, Vascular endothelial growth factor receptor 1. Kind of series: Inhibition of human VEGFR1 assessed as enzyme residual activity at 10 uM using poly[Glu:Tyr] (4:1) substrate and [gamma-33P]-ATP by radiometric biochemical kinase assay relative to control.
The target in series [3] is c-Kit (Mast/stem cell growth factor receptor Kit) (Homo sapiens, UniProt P10721). Kind of series: Inhibition of human c-Kit assessed as enzyme residual activity at 10 uM using poly[Glu:Tyr] (4:1) substrate and [gamma-33P]-ATP by radiometric biochemical kinase assay relative to control. The settings on record: probe poly[Glu:Tyr] (4:1), read-out: Activity.
Series [4] is filed under the species Homo sapiens. The experiment in a line: Anti-lymphangiogenic activity in HDLEC assessed as reduction in human A375 cells-induced lymphatic sprouting at 1 to 10 uM incubated for 4 days by Hoechst 33342 and phalloidin staining based microfluidic platform assay relative to control. The class given is functional, cell-based.
The species entered for series [5] is Homo sapiens. Kind of series: Anti-lymphangiogenic activity in HDLEC assessed as reduction in human MIAPaCa-2 cells-induced lymphatic sprouting at 1 to 10 uM incubated for 4 days by Hoechst 33342 and phalloidin staining based microfluidic platform assay relative to control. In kind it is functional, cell-based.
Series [6] relates to HUVEC. The experiment in a line: Anti-angiogenesis activity in HUVEC assessed as inhibition of VEGF-A-induced cell migration at 0.1 uM incubated for 12 hrs by wound healing assay. The class given is functional, cell-based. The settings on record: Homo sapiens.
Series [7] relates to HUVEC. The experiment in a line: Anti-angiogenesis activity in HUVEC assessed as inhibition of VEGF-A-induced tube formation at 0.1 uM incubated for 6 hrs by tube formation assay. The class given is functional, cell-based. The settings on record: Homo sapiens.
Series [8] has as its system Mus musculus. Kind of series: Anti-lymphangiogenic activity in C57BL/6 mouse assessed as suppression of suture-induced corneal lymphangiogenesis at 200 nM administered topically every 12 hrs for 7 days by immunohistochemical analysis. In kind it is functional, organism-based.
The test system of series [9] is Mus musculus. The experiment in a line: Anti-angiogenesis activity in C57BL/6 mouse assessed as suppression of suture-induced corneal angiogenesis at 200 nM administered topically every 12 hrs for 7 days by immunohistochemical analysis. The class given is functional, organism-based.
Series [10] is described as follows: Toxicity in C57BL/6 mouse assessed as induction of clinically detectable corneal-epitheliopathy at 200 nM administered topically every 12 hrs for 7 days by immunohistochemical analysis. The settings on record: in vivo, topical_or_ocular, 0.2 µM.
For series [11], the system named is HUVEC. The experiment in a line: Anti-angiogenesis activity in truncated-FOSB transfected HUVEC cells model of pseudomyogenic-hemangioendothelioma assessed as inhibition of tube formation. The settings on record: Homo sapiens. The class given is functional, cell-based.
Series [12] concerns HUVEC. The experiment in a line: Anti-angiogenesis activity in truncated-FOSB transfected HUVEC cells model of pseudomyogenic-hemangioendothelioma assessed as inhibition of cell proliferation. In kind it is functional, cell-based. The settings on record: Homo sapiens.
Series [13] has as its target Mast/stem cell growth factor receptor Kit (Homo sapiens, UniProt P10721). Kind of series: Inhibition of c-Kit phosphorylation in human TF1 cells assessed as at 0.1 to 0.3 uM incubated for 2 hrs by Western blot analysis. In kind it is cell-based.
The test system of series [14] is MOLM-14. The experiment in a line: Induction of apoptosis in human MOLM14 cells at 0.1 uM incubated for 24 hrs by propidium iodide and annexin-V staining based flow cytometry. In kind it is functional, cell-based.
In series [15] the test system is MV4-11. The experiment in a line: Induction of apoptosis in human MV4-11 cells at 0.1 uM incubated for 24 hrs by propidium iodide and annexin-V staining based flow cytometry. The class given is functional, cell-based.
Series [16] relates to MOLM-14. The experiment in a line: Induction of apoptosis in human MOLM14 cells assessed as induction of PARP cleavage at 0.1 to 1 uM incubated for 24 hrs by Western blot analysis. The class given is functional, cell-based.
Series [17] deals with MOLM-14. Kind of series: Induction of apoptosis in human MOLM14 cells assessed as induction of caspase-3 cleavage at 0.1 to 1 uM incubated for 24 hrs by Western blot analysis. In kind it is functional, cell-based.
Series [18] relates to MV4-11. The experiment in a line: Induction of apoptosis in human MV4-11 cells assessed as induction of PARP cleavage at 0.1 to 1 uM incubated for 24 hrs by Western blot analysis. The class given is functional, cell-based.
Series [19] concerns MV4-11. The experiment in a line: Induction of apoptosis in human MV4-11 cells assessed as induction of caspase-3 cleavage at 0.1 to 1 uM incubated for 24 hrs by Western blot analysis. In kind it is functional, cell-based.
The target of series [20] is T2, Receptor-type tyrosine-protein kinase FLT3 (Homo sapiens, UniProt P36888).
T2 sequence (P36888 whole entry): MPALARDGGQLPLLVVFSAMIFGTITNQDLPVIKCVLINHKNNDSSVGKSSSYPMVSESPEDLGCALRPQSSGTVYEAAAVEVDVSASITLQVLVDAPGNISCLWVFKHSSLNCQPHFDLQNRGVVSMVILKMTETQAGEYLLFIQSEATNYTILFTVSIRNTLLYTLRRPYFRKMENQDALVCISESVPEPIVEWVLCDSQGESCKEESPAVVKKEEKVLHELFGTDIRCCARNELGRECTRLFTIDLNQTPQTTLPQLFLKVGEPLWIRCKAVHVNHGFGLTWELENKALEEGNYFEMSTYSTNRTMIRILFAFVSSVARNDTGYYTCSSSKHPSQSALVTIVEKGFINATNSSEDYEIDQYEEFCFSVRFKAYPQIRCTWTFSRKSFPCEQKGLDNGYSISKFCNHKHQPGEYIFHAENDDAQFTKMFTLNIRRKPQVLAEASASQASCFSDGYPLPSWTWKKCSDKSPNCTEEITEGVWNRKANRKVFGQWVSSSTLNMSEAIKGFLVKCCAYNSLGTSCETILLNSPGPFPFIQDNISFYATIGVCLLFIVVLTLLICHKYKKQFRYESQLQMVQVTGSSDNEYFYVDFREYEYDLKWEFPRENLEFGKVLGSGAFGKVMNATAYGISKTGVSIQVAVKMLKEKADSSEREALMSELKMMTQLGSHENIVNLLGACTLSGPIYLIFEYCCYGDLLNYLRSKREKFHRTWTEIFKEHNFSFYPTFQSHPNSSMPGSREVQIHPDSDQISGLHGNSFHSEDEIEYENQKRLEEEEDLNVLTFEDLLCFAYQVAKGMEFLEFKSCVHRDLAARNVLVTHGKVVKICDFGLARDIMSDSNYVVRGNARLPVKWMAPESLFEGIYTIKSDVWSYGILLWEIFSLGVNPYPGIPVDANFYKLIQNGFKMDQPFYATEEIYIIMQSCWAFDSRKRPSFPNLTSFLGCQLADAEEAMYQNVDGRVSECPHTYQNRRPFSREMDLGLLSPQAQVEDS

The species entered for series [21] is Homo sapiens. The experiment in a line: Anti-lymphangiogenic activity in HDLEC assessed as reduction in growth factor cocktail-induced lymphatic sprouting at 10 uM incubated for 4 days by Hoechst 33342 and phalloidin staining based microfluidic platform assay relative to control. The class given is functional.
Series [22] relates to HUVEC. Kind of series: Anti-angiogenesis activity in truncated-FOSB transfected HUVEC cells model of pseudomyogenic-hemangioendothelioma assessed as inhibition of tube formation up to 5 uM. The settings on record: Homo sapiens. In kind it is functional, cell-based.
For series [23], the target named is T3, Vascular endothelial growth factor receptor 2 (Homo sapiens, UniProt P35968).
Description: Inhibition of human VEGFR2 using poly[Glu:Tyr] (4:1) substrate and [gamma-33P]-ATP by radiometric biochemical kinase assay
For series [24], the target named is T4, Vascular endothelial growth factor receptor 3 (Homo sapiens, UniProt P35916).
Description: Inhibition of human VEGFR3 using poly[Glu:Tyr] (4:1) substrate and [gamma-33P]-ATP by radiometric biochemical kinase assay
The target in series [25] is T3, Vascular endothelial growth factor receptor 2. This is another data set of the same source.
Description: Inhibition of TEL-fused VEGFR2 (unknown origin) expressed in mouse BA/F3 cells assessed as inhibition of cell growth incubated for 72 hrs by Cell-titer-Glo assay
Series [26] addresses T4, Vascular endothelial growth factor receptor 3. This is another data set of the same source.
Description: Inhibition of TEL-fused VEGFR3 (unknown origin) expressed in mouse BA/F3 cells assessed as inhibition of cell growth incubated for 72 hrs by Cell-titer-Glo assay
Series [27] concerns the target Receptor-type tyrosine-protein kinase FLT3 (Homo sapiens) (UniProt P36888).
Description: Inhibition of TEL-fused FLT3 (unknown origin) expressed in mouse BA/F3 cells assessed as inhibition of cell growth incubated for 72 hrs by Cell-titer-Glo assay

T3 sequence (P35968 whole entry): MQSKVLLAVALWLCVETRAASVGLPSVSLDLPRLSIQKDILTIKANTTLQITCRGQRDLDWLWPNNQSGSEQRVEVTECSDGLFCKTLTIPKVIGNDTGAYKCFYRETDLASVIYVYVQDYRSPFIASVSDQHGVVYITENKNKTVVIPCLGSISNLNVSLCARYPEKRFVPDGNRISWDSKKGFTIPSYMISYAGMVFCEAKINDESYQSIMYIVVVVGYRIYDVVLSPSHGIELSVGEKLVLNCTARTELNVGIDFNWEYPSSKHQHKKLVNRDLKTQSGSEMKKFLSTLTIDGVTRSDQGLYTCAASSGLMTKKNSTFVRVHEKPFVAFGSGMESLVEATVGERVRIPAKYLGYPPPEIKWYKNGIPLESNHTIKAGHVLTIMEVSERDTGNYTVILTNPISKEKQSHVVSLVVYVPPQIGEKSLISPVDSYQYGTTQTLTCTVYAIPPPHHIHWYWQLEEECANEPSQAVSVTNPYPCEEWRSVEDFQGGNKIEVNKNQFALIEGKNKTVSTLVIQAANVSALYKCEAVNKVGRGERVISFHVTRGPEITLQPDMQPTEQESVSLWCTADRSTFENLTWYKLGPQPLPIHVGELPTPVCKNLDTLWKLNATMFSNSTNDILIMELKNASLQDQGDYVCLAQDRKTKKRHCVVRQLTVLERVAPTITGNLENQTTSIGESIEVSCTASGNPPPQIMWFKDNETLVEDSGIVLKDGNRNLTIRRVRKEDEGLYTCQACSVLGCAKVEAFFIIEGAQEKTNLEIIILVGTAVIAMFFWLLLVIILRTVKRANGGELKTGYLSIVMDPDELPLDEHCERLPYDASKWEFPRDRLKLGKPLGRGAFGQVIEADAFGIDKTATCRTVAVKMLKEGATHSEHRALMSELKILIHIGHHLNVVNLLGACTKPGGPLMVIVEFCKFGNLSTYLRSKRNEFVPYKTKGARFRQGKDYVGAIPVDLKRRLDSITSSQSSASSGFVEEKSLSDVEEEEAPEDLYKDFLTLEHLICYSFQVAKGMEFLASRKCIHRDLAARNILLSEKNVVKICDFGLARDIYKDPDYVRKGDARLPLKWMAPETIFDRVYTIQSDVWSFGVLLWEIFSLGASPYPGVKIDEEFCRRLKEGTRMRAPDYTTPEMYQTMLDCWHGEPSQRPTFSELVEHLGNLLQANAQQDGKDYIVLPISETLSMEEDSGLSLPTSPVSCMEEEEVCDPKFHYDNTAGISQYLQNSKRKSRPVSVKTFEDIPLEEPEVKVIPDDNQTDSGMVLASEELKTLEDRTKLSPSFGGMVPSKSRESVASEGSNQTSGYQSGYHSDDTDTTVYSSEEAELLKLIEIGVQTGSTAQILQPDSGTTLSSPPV
T4 sequence (P35916 whole entry): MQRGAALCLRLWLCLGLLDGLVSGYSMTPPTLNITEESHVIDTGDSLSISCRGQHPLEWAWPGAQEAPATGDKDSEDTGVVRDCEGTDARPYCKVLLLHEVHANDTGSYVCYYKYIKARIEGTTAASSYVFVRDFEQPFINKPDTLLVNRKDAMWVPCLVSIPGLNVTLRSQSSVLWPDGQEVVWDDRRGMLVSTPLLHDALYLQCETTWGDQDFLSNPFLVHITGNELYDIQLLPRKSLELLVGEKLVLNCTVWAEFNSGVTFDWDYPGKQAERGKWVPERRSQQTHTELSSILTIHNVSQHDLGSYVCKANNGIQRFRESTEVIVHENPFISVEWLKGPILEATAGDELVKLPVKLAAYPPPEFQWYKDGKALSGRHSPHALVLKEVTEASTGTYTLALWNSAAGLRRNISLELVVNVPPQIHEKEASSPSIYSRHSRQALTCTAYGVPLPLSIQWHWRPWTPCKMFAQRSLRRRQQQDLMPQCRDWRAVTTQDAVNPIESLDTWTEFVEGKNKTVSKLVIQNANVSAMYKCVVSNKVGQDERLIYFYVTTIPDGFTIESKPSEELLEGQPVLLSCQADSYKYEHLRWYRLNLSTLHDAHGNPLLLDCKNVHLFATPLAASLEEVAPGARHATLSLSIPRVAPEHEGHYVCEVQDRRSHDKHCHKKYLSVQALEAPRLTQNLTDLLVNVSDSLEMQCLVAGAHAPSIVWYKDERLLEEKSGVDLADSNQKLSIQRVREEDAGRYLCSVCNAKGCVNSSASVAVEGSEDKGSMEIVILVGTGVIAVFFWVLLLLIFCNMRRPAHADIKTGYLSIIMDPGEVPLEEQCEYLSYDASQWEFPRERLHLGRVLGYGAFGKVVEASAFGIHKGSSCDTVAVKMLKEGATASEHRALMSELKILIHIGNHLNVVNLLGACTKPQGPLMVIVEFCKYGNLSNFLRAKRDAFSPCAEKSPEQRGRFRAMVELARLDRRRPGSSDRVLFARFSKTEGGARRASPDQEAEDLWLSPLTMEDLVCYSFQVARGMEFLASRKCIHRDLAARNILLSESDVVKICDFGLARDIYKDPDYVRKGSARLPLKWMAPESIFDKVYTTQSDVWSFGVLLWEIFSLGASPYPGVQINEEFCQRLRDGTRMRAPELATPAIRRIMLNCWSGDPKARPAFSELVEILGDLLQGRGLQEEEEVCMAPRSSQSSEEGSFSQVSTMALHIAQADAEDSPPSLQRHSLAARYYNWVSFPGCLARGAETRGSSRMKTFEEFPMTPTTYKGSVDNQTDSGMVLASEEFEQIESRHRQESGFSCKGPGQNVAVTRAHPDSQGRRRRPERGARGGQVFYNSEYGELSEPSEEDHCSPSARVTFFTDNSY
T1 sequence (P17948 whole entry): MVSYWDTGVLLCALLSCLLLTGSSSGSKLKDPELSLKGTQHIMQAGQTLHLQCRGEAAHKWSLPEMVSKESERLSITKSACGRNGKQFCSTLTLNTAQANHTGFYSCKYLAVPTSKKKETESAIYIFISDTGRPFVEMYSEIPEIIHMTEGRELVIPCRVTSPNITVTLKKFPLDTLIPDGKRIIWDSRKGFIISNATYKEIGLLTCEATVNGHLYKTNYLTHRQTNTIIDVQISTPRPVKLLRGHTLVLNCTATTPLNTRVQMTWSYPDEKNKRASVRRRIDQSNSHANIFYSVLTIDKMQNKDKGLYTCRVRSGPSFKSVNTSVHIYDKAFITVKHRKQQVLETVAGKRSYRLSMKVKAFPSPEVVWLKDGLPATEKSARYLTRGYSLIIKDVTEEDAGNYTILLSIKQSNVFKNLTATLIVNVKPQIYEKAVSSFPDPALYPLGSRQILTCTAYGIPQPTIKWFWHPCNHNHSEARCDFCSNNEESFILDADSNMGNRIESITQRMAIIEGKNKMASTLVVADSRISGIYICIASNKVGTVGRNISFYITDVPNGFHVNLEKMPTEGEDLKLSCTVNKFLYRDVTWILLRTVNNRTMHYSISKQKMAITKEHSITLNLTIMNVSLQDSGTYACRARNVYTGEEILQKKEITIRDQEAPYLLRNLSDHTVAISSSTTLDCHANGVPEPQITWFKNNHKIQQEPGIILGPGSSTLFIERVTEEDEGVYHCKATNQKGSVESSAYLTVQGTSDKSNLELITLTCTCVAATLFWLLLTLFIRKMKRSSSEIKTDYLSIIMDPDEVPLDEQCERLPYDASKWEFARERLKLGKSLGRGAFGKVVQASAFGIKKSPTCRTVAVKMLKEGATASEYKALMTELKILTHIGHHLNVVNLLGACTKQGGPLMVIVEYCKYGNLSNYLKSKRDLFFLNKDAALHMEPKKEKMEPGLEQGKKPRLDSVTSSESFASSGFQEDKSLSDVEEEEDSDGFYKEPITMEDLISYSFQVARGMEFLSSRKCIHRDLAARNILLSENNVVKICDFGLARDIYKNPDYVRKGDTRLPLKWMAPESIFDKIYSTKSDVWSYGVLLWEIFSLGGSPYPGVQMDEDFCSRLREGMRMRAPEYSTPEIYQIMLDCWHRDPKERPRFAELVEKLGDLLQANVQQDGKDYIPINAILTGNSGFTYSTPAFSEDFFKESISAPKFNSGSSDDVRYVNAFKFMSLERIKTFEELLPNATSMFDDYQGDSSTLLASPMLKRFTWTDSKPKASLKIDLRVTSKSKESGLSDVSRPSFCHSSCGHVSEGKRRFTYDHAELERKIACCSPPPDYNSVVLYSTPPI
Sequence of Mast/stem cell growth factor receptor Kit (P10721 whole entry): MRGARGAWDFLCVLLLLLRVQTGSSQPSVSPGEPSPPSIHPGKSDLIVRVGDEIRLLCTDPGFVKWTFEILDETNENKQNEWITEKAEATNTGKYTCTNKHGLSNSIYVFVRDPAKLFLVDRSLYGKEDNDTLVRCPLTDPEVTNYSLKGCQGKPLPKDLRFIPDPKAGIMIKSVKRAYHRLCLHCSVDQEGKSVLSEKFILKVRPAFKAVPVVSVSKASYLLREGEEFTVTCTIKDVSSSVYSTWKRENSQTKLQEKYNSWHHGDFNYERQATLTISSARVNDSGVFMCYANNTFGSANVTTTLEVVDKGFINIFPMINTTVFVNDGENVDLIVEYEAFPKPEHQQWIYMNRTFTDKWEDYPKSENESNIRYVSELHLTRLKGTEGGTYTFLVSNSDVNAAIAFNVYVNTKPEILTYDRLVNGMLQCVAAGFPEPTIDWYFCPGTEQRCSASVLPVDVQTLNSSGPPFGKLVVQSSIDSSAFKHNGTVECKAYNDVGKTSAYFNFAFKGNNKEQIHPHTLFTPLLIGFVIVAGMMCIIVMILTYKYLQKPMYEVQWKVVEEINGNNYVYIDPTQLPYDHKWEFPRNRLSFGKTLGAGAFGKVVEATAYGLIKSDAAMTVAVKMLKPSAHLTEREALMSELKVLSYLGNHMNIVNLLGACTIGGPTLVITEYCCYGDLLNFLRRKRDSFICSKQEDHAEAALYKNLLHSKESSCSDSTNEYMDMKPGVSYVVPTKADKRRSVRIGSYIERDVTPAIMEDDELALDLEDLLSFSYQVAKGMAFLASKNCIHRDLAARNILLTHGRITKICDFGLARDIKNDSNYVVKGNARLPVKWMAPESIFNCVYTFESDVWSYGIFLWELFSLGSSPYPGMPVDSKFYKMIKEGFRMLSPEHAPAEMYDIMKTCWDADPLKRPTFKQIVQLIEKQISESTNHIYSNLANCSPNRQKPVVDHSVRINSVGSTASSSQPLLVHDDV
Sequence of c-Kit (Mast/stem cell growth factor receptor Kit) (P10721 whole entry): as above
Description for in vitro: Growth inhibition of mouse BA/F3 cells assessed as inhibition of cell growth incubated for 72 hrs by Cell-titer-Glo assay

Take `COc1cc(O)c2c(c1)-c1cccc(c1)[C@@H](O)[C@H](O)[C@H](O)/C=C\C[C@H](C)OC2=O`: the GI50 at 72 h in “in vitro” is more than 25 µM.

Take `COc1cc(O)c2c(c1)-c1cccc(c1)[C@@H](O)[C@H](O)C(=O)/C=C\C[C@H](C)OC2=O`: in series [1], half-maximal inhibition (IC50) was put at 0.845 µM. The Activity in series [2] was 36.6%; in series [10], “Non-Toxic”; in the series with HUVEC [11] it was “Dose-dependent effect”; in the series on HUVEC [12], “Dose-dependent effect”. The activity at 10 µM in series [3] worked out at 82.2%. Besides, the Activity entry in the series filed under Homo sapiens [4], in the series filed under Homo sapiens [5], with Mus musculus [8], in the series with Mus musculus [9], in the series on MOLM-14 [14] and in the series with MV4-11 [15] was “Active” each time. For the same molecule, the Activity result in the series with MOLM-14 [16], in the series on MOLM-14 [17], with MV4-11 [18] and in the series on MV4-11 [19] was “Active” each time. Also, the inhibition entry with HUVEC [6] and with HUVEC [7] was “Active” in each case. Besides, the “inhibition (INH)” value in series [13] is recorded as “Not Active”. Besides, the GI50 at 72 h in “in vitro” turned out to be 10 µM.

`COc1cc(O)c2c(c1)-c1cccc(c1)[C@@H](O)[C@H](O)C(=O)CCC[C@H](C)OC2=O` displayed a 50% growth inhibitory concentration (GI50) at 72 h in the series “in vitro” of more than 25 µM.

In the case of `CCn1c(N)c(C(=O)NC)c(=O)c2ccc(C#C[C@@](C)(O)COC)nc21`, the concentration for half-maximal inhibition (IC50) in series [20] stood at 0.29 µM; in series [23], 0.067 µM; in series [24], 0.0012 µM. Besides, the fold change (FC) in the series listed under Homo sapiens [21] worked out at 2. Further, the inhibition entry in the series with HUVEC [6] and in the series with HUVEC [7] was “inactive” in each case. In addition, the Activity entry in the series on Mus musculus [8] is “Active”. For the same molecule, the Activity entry in series [10] is listed as “Non-Toxic”. Moreover, the Activity result in the series with HUVEC [22] is “inactive”. Further, the GI50 is 4.6 µM in series [25], 0.059 µM in series [26] and 18 µM in series [27]. For the same molecule, in “in vitro”, the 50% growth inhibitory concentration (GI50) at 72 h is more than 25 µM.

In the case of `C=C1/C=C\C[C@H](C)OC(=O)c2c(O)cc(OC)cc2-c2cccc(c2)[C@@H](O)[C@@H]1O`, the half-inhibitory concentration (IC50) in [23] and in series [24] was more than 10 µM each time. The 50% growth inhibitory concentration (GI50) in series [25] and in series [26] was more than 25 µM throughout. Moreover, the GI50 at 72 h in the series “in vitro” is more than 25 µM.

In the case of `COc1cc(O)c2c(c1)CCC[C@H](O)[C@H](O)C(=O)/C=C\C[C@H](C)OC2=O`, the IC50 was 0.0018 µM in [20], 0.0029 µM in series [23] and 0.00073 µM in series [24]. In addition, the results for the 50% growth inhibitory concentration (GI50) in series [25], in [26] and in series [27] were 0.14 µM, 0.05 µM and 0.27 µM, respectively. This molecule also came in with a 50% growth inhibitory concentration (GI50) at 72 h in “in vitro” of 1.7 µM.

Consider `COc1cc(O)c2c(c1)-c1cccc(c1)CCC(=O)/C=C\C[C@H](C)OC2=O`, for which the GI50 at 72 h in the series “in vitro” is more than 25 µM.

`COc1cc(O)c2c(c1)-c1cccc(c1)[C@H](O)[C@H](O)C(=O)/C=C\C[C@H](C)OC2=O` returned a GI50 at 72 h in the series “in vitro” of 12 µM. This counts as double-digit micromolar.

Take `COc1cc(O)c2c(c1)-c1cccc(c1)[C@H](O)[C@@H](O)C(=O)/C=C\C[C@H](C)OC2=O`: halving of growth in “in vitro” (GI50 at 72 h) required 17 µM.

For `COc1cc(O)c2c(c1)-c1cccc(c1)[C@H](O)[C@H](O)C(=O)CCC[C@H](C)OC2=O`, the concentration for 50% growth inhibition (GI50) at 72 h in “in vitro” is more than 25 µM.

`COc1cc(O)c2c(c1)-c1cccc(c1)[C@H](O)[C@@H](O)C(=O)CCC[C@H](C)OC2=O` displayed a GI50 at 72 h in “in vitro” of more than 25 µM.

Regarding `COc1cc(O)c2c(c1)-c1cccc(c1)[C@@H](O)[C@H](O)C(=O)C/C=C/[C@H](C)OC2=O`, in “in vitro”, the GI50 at 72 h is 11 µM.

In the case of `COc1cc(O)c2c(c1)-c1cccc(c1)[C@@H](O)[C@H](O)[C@@H](N)/C=C\C[C@H](C)OC2=O`, the half-inhibitory concentration (IC50) in series [23] and in series [24] was more than 10 µM throughout. Also, the GI50 in [25], in [26] and in series [27] was more than 25 µM in each case. In “in vitro”, this molecule had a concentration for 50% growth inhibition (GI50) at 72 h of more than 25 µM.
